The record followed here is patent US11040053B2, “Compositions and methods for activating “stimulator of interferon gene”13 dependent signalling” (CHINOOK THERAPEUTICS, INC., priority 2015, dated 2021).

The target in test [1] is T1, wild type (WT) STING allele (Homo sapiens, UniProt Q86WV6, H232R).
T1 construct: one donor was homozygous for the wild type (WT) STING allele; endogenous in cells; host or cells: human PBMCs, donor STING WT/WT
Nature of the test: Cytokine transcript induction (qRT-PCR) in STING^WT/WT hPBMCs. In kind it is cell-based. The following applies: for relative normalized IFNβ expression, in words: FIGS. 7A-B, 2 hours stimulation, 100 μM to 0.1 μM. The method, then: (§1) The induction of type I interferon was measured in human primary blood mononuclear cells (hPBMCs) to evaluate the potency of mono- or di-F-CDN compounds as described herein. hPBMCs from two unique donors were used: one donor was homozygous for the wild type (WT) STING allele (STING^WT/WT) and the other donor was homozygous for the so-called reference (REF) STING allele (STING^REF/REF). The STING genotype of these donors was determined by PCR amplification and sequencing: genomic DNA was isolated from 10^4 hPBMCs using Quick Extract DNA Extraction Solution (Epicentre) and was used to amplify regions of exon 3, 6, and 7 of the human STING gene.
(§2) Cells were incubated at 37° C., 5% CO2 with concentrations ranging from 100 μM to 0.1 μM of each CDN. After 2 hours (FIGS. 7 and 8) or 2 hours and 6 hours (FIGS. 9-13) stimulation, cells were harvested by centrifugation and washed once with phosphate-buffered saline. Cellular RNA was isolated using the Aurum Total RNA 96 Kit and cDNA was synthesized using the iScript cDNA Synthesis Kit. Target and reference gene expression was assessed by real-time qRT-PCR using PrimePCR probe assays and the CFX96 gene cycler (all reagents and equipment from BioRad). Normalized IFNβ expression was expressed relative to untreated cells. Target genes included type I interferon (IFNβ), Th1-associated cytokines (IFNγ, IL-12p40) and NF-kB dependent inflammatory cytokines (TNFα, IL-6). Reference genes included GUSB alone (FIGS. 7 and 8) or GUSB and HSP90AB1 (FIGS. 9-13).
For orientation: Quantitative PCR measures a nucleic acid by following its amplification.

Test [2] addresses T2, reference (REF) STING allele (Homo sapiens, UniProt Q86WV6).
T2 construct: endogenous in cells
Description: Cytokine transcript induction (qRT-PCR) in STING^REF/REF hPBMCs. In kind it is cell-based. The following applies: for relative normalized IFNβ expression, in words: FIGS. 8A-B, 2 hours stimulation, 100 μM to 0.1 μM; for cytokine responses (IFNβ, TNFα, IL-6, IFNγ, IL-12p40 expression), in words: FIGS. 9B-13B, 2 hours and 6 hours stimulation. The method, then:
as §1, §2

A further test relates to B16.SIY cells. Nature of the test: B16.SIY melanoma mouse model, intra-tumoral injection. The format is in vivo, C57BL/6 mice. As for the experimental part: To determine whether the derivative molecules elicit anti-tumor immunity, 6-8 week old female C57BL/6 mice (8 mice per group) were implanted with B16.SIY cells (5×10^5 cells in 100 μL PBS). Mice were treated with reference compound 3′3′-RR-(A)(A) and di-F compound 3′3′-RR-(2′F-A)(2′F-A) (5, 50, 100 μg in a total volume of 40 μL HBSS), or HBSS vehicle control. Treatments began when tumors reached a volume of approximately 100 mm^3, on day 9 post tumor implantation. The CDN compounds were administered by […] injection into the center of the tumor (IT) using a 27 gauge needle. Mice were bled on day 16 post tumor implantation and PBMCs were isolated by Ficoll gradient (Miltenyi Biotech). 1×10^5 PBMCs were pre-incubated with anti-CD16/32 monoclonal antibody to block potential nonspecific binding, and labeled with PE-MHC class I pentamer (Proimmune) consisting of murine H-2Kb complexed to […] (SIY, SEQ ID NO: 16) peptide, anti-TCRβ-AF700 (H57-597), anti-CD8-Pacific Blue (53-6.7), anti-CD4-Pacific Orange (RM4-5) (all antibodies from BioLegend) and the Fixable Viability Dye eFluor 450 (eBioscience). Stained cells were analyzed using FACS Versa cytometer with FACSDiva software (BD). Data analysis was conducted with FlowJo software (Tree Star).

The test system of the next test is HIVgag p55 protein. Nature of the test: Immunization with HIVgag p55 protein plus CDN, splenocyte IFNγ ELISPOT. The following applies: 1 μg or 5 μg CDN in AddaVax with 5 μg HIVgag p55 s.c., day 7 IFNγ ELISPOT, vs no CDN; for HIVgag p55 antigen specific CD4+ T-cell response, in words: FIG. 16A. In kind it is in vivo, BALB/c mice. The method, then: To determine whether the fluorinated derivatives could elicit HIVgag-specific CD4^+ and CD8^+ T cell responses, BALB/c mice (n=4) were immunized subcutaneously with 0 μg (no CDN), 1 μg or 5 μg of CDN formulated in 2% squalene-and-water (AddaVax, Invivogen) with 5 μg HIVgag p55 protein. Seven days following the vaccination, spleens were harvested from the mice and splenocytes prepared. 2×10^5 splenocytes were stimulated overnight in an IFNγELISPOT assay with media alone (unstimulated) or with 1 μM HIVgag p55 CD4^+ and CD8^+ specific peptides. IFNγ ELISPOTs were developed and quantified using a CTL plate reader and ImmunoSpot software. 3′3′-RR-(2′F-A)(2′F-A) and 3′3′-RR-(2′F-G)(2′F-A) were evaluated for their ability to induce HIVgag-specific immune responses.

Test [3] deals with T3, human-STING(E149-S379)H232R protein (Homo sapiens, UniProt Q86WV6, H232R).
T3 construct: His6 (C); made in house; host or cells: E. coli
Description: Surface Plasmon Resonance binding to hSTING WT. The following applies: Biacore T200, 15° C., steady-state analysis. As for the experimental part: Binding of the mono- and di-F CDN compounds was assessed using Surface Plasmon Resononce to determine a binding constant. An E. coli expression construct (human-STING[E149-S379]H232R) was prepared harboring the protein sequence:
Aliquots were prepared and stored at −80° C. in 30 mM Tris pH 7.5/100 mM NaCl/10% glycerol.
N-terminal avi-tagged human-STING(E149-S379)H232R protein was immobilized (2500 RUs) on a streptavidin chip at 15° C. in a Biacore T200 (GE Healthcare). Titrations of cyclic dinucleotides (CDNs as indicated in Table 6) in 30 mM Tris pH 7.5/50 mM NaCL/0.005% Tween 20/1 mM DTT/2% DMSO, were profiled (30 μLs/min, 180 seconds for sample contact/120 seconds for dissociation) against hSTING at 15° C. Kinetic analysis of the data was performed using Biacore T200 Evaluation software. Steady-state analysis of the data was performed using Graphpad Prism 6.0 software, using one site-specific binding algorithm (Equation is Y=Bmax*X/(Kd+X)).
On the technique in general: In SPR one partner is held on a chip, and binding of the other changes the refractive index at the surface.

Setting [4] is: listed as 3′3′-RR-(2′F-A)(2′F-A).

pKd: −log10 of the molar value. “Also recorded” adds a separate entry of the source.

T2 sequence (Q86WV6 whole entry): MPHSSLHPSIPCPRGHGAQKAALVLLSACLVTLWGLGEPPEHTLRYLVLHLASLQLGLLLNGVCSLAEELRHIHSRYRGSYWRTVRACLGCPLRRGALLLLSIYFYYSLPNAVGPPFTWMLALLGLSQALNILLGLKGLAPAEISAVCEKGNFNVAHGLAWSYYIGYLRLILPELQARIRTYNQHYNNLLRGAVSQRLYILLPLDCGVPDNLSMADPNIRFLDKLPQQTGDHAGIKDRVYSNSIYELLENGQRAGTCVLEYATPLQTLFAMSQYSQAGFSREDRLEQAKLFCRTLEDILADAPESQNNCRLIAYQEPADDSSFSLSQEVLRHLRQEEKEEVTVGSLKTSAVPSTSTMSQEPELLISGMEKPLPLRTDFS
T1 sequence (Q86WV6 whole entry H232R): as the sequence (Q86WV6 whole entry) above, with H232R counted along it
T3 sequence (Q86WV6 with tags, fused parts or gaps H232R): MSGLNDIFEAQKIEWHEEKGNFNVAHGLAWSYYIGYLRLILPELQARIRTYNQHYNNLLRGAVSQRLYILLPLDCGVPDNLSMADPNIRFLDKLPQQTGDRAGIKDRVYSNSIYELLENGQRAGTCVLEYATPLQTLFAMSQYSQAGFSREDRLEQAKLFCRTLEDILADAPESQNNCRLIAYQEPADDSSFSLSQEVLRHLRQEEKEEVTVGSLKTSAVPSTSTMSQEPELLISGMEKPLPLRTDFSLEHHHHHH

As to `Nc1ncnc2c1ncn2[C@@H]1O[C@@H]2CO[P@@](=O)(S)O[C@H]3[C@@H](F)[C@H](n4cnc5c(N)ncnc54)O[C@@H]3CO[P@@](=O)(S)O[C@H]2[C@H]1F` [Compound 6, (2R,3R,3aR,5R,7aR,9R,10R,10aR,12R,14aR)-2,9-bis(6-amino-9H-purin-9-yl)-3,10-difluoro-5,12-dimercaptooctahydro-2H,7H-difuro[3,2-d:3′,2′-j][1,3,7,9]tetraoxa[2,8]diphosphacyclododecine 5,12-dioxide], the results for the “relative normalized IFNβ expression, in words” value in test [1] (setting [4]) and in test [2] (setting [4]) were “induced similar levels of IFNβ; also recorded: induced higher levels of IFNβ transcript when compared to the 3′3′-(A)(A) compound; also recorded: stimulated higher levels of IFNβ transcript by STING^WT/WT hPBMCs when compared to non-canonical 2′3′-(G)(A)” and “stimulated dose-dependent production of IFNβ transcript; also recorded: more potent inducers of IFNβ transcript STING^REF/REF hPBMCs than 2′3′-(G)(A)”, respectively. The “cytokine responses (IFNβ, TNFα, IL-6, IFNγ, IL-12p40 expression), in words” value in test [2] was “induced more robust responses of all of the cytokines tested”. Also, the “tumor volume / tumor growth, in words” value in the test with B16.SIY cells (FIG. 14A, IT injection 5, 50, 100 μg, established B16-SIY melanomas) is on record as “rejected the growth of established B16-SIY melanomas at all doses”. Further, the “percent of SIY-specific CD8+ T cells in PBMCs, in words” value with B16.SIY cells (FIG. 14B, 5 μg IT, day 7 post-IT injection, vs HBSS control) was “elicited significantly SIY-specific CD8^+ T cells”. Further, the “HIVgag p55 antigen specific CD4+ T-cell response, in words” value in the test on HIVgag p55 protein is given as “eliciting significant CD4+ T cell responses against HIVgag p55”. Also, the pKd in test [3] is 9.00.
With `Nc1nc2c(ncn2[C@@H]2O[C@@H]3CO[P@@](=O)(S)O[C@H]4[C@@H](F)[C@H](n5cnc6c(N)ncnc65)O[C@@H]4CO[P@@](=O)(S)O[C@H]3[C@H]2F)c(=O)[nH]1` (stereo in doubt) [Compound 14, 2-Amino-9-((2R,3R,3aR,5R,7aR,9R,10R,10aR,12R,14aR)-9-(6-amino-9H-purin-9-yl)-3,10-difluoro-5,12-dimercapto-5,12-dioxidooctahydro-2H,7H-difuro [3,2-d:3′,2′-j][1,3,7,9]tetraoxa[2,8]diphosphacyclododecin-2-yl)-1,9-dihydro-6H-purin-6-one], the “relative normalized IFNβ expression, in words” value in test [1] is given as “most potent inducer of type I interferon in STING^WT/WT hPBMCs”; in test [2] (listed as 3′3′-RR-(2′F-G)(2′F-A)), “stimulated dose-dependent production of IFNβ transcript; also recorded: more potent inducers of IFNβ transcript STING^REF/REF hPBMCs than 2′3′-(G)(A); also recorded: extremely potent stimulator of the REF STING allele”. For the same compound, the “IFNβ level compared to the parent cGAMP compound” value in test [1] (in the dose range tested) is on record as 10-100 fold. In test [2], the “IFNβ transcript level compared to cells similarly dosed with 2′3′-(G)(A)” value is listed as 12- to 70 fold. The “cytokine responses (IFNβ, TNFα, IL-6, IFNγ, IL-12p40 expression), in words” value in test [2] is listed as “induced more robust dose-dependent responses of each of the cytokines tested”. The “HIVgag p55 antigen specific CD4+ T-cell response, in words” value in the test with HIVgag p55 protein is listed as “eliciting significant CD4+ T cell responses against HIVgag p55”. Moreover, the “HIVgag p55 antigen specific CD8+ T-cell response, in words” value in the test with HIVgag p55 protein (FIG. 16B) is recorded as “elicited significant CD8^+ T cell responses against HIVgag p55”.

Broadly, the pKd is the negative decadic logarithm of the Kd, by convention in mol/L. A lower pKd goes with a high Kd.
